Consider three compounds from US9637516B2, “Betulinic acid proline derivatives as HIV inhibitors” (HETERO RESEARCH FOUNDATION, priority 2012, dated 2017).

Molecules are shown by their SMILES.

One series deals with HIV-1 strain 92HT599. Kind of series: Antiviral activity: p24 estimation in MT2 cells infected with HIV-1 strain 92HT599. The settings on record: for inhibition at 0.1 µM: Human immunodeficiency virus 1, 100 nM; for inhibition at 0.1 µM / inhibition at 1 µM: HIV-1 92HT599, p24, ~96 hours; for inhibition at 1 µM: Human immunodeficiency virus 1, 1000 nM; for IC50: Human immunodeficiency virus 1, HIV-1 92HT599, p24. Type of series: cell-based. The procedure, abridged:
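MT2 cells infected with HIV-1 92HT599 (10 TCID50/30000 cells), ~30,000 cells/well, incubated ~96 h with test compound (DMSO ≤1%). Supernatant p24 quantified by kit; percent inhibition relative to vehicle controls.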

A short description of another series: in vitro. Type of series: cell-based. The settings on record: human, Cytotoxicity % viability. The procedure:
(§1) For cyto-toxicity assay the same amount of MT2 cells as in antiviral assay without virus was added to the 96 well plates. The cyto-toxicity was measured using MTT reagent in parallel with p24 estimation. The percent viability is calculated in comparison with vehicle control.

A further series relates to MT2 cells. Put plainly: in vitro. Type of series: cell-based. The conditions noted are these: human, 1 µM. As to the method:
as §1

The nature of series [1]: Single dose oral pharmacokinetic study. The settings on record: mouse, plasma; Mice oral PK @30 mg/kg (Table 3). Type of series: in vivo, mice. An outline of the steps:
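Mice or rats dosed orally at 30 mg/kg in a suitable vehicle (10 ml/kg). Retro-orbital blood on K3 EDTA at defined time points under light ether anaesthesia; plasma analysed by LC-MS-MS.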

In general, inhibition refers to the change of the read-out against control, counted positive when it falls. For orientation: IC50 means the concentration that inhibits the measured activity by half. A word on the viability: it is the share of living cells, or the viability signal relative to a control. Lower therefore signals more harm to the cells. Broadly, the AUC(0-t) is the area under the concentration-time curve up to a stated or last time point. By Cmax is commonly meant the maximum level reached in the sampled fluid or tissue. As a reminder, the Tmax is the time at which the peak concentration occurs. As for `C=C(C)[C@@H]1CC[C@]2(C(=O)N3CCC[C@H]3c3ncc(-c4cccnc4)[nH]3)CC[C@]3(C)[C@H](CC[C@@H]4[C@@]5(C)CC[C@H](OC(=O)CC(C)(C)CC(=O)O)C(C)(C)[C@@H]5CC[C@]43C)[C@@H]12` [Compound 11, 3,3-dimethyl-5-oxo-5-((1R,3aS,5aR,5bR,7aR,9S,11aR,11bR,13aR,13bR)-5a,5b,8,8,11a-pentamethyl-1-(prop-1-en-2-yl)-3a-((S)-2-(5-(pyridin-3-yl)-1H-imidazol-2-yl)pyrrolidine-1-carbonyl)icosahydro-1H-cyclopenta[a]chrysen-9-yloxy)pentanoic acid], in the series on HIV-1 strain 92HT599, the inhibition at 0.1 µM is 99%, the inhibition at 1 µM was 100% and the IC50 was 1.51 nM. The compound also returned a viability at 1 µM in “in vitro” of 80%. The compound further showed a Cytotoxicity % viability with MT2 cells of 84%. Further, in series [1], the AUC(0-t) was determined as 59.5 µg·h/mL, the highest level (Cmax) was 7620 ng/mL and the Tmax was found to be 1.25 h.
Regarding `CC(C)(CC(=O)O)CC(=O)O[C@H]1CC[C@]2(C)[C@H]3CC[C@@H]4[C@H]5[C@H](C6(C)CC6)CC[C@]5(C(=O)N5CCC[C@H]5c5ncc(-c6ccccc6)[nH]5)CC[C@@]4(C)[C@]3(C)CC[C@H]2C1(C)C` [Compound 13, 3,3-dimethyl-5-oxo-5-((1R,3aS,5aR,5bR,7aR,9S,11aR,11bR,13aR,13bR)-5a,5b,8,8,11a-pentamethyl-1-(1-methylcyclopropyl)-3a-((S)-2-(5-phenyl-1H-imidazol-2-yl)pyrrolidine-1-carbonyl)icosahydro-1H-cyclopenta[a]chrysen-9-yloxy)pentanoic acid], in the series on HIV-1 strain 92HT599, the inhibition at 0.1 µM is 78% and the inhibition at 1 µM was 100%. Also, the viability at 1 µM in “in vitro” came out at 74%. The Cytotoxicity % viability in the series on MT2 cells is recorded as 72%. Moreover, in series [1], the AUC(0-t) was 156 µg·h/mL, the Cmax came to 11100 ng/mL and the Tmax was determined as 4 h.
Consider `C=C(C)[C@@H]1CC[C@]2(C(=O)N3CCC[C@H]3c3ncc(-c4ccccc4)[nH]3)CC[C@]3(C)[C@H](CC[C@@H]4[C@@]5(C)CC[C@H](OC(=O)[C@H]6C[C@@H](C(=O)O)C6(C)C)C(C)(C)[C@@H]5CC[C@]43C)[C@@H]12` [Compound 14], for which, in the series with HIV-1 strain 92HT599, the inhibition at 0.1 µM is 94%, the inhibition at 1 µM is 100% and the IC50 is 15.3 nM. The viability at 1 µM in “in vitro” came out at 82%. For the same compound, the Cytotoxicity % viability in the series on MT2 cells was 86%. For the same compound, in series [1], the AUC(0-t) came out at 171 µg·h/mL, the concentration peaked (Cmax) at 11000 ng/mL and the Tmax came out at 5 h.
